Test results as given in patent US11541029B2, “High penetration compositions and their applications” (Techfields Pharma Co., Ltd., priority 2008, dated 2023).

Tests used:
[1] = Distribution in milk of sheep after transdermal HPC of ibuprofen; assay type: in vivo; conditions: female, topical, 2 hr after 0.3 mmol/kg diethylaminoethyl 2-(ρ-isobutylphenyl)propionate.citric acid salt on back, read-out: amount found in the milk
Excerpt: (§1) A HPC changed quickly to its parent drug in vivo, so the concentration was the concentration of its parent drug or related compound.

[2] = Amount of ibuprofen in Beagle dogs synovial fluid, 0.3 mmol/kg; assay type: in vivo
[3] = Distribution in organs of rabbits after transdermal HPC of ibuprofen; assay type: in vivo; conditions: for distribution in brain / distribution in cartilage pads / distribution in heart / distribution in prostate gland / distribution in testis: 2 hr after 0.3 mol/kg HPC of ibuprofen (10% aqueous) on shaved back; for distribution in Myelin: 2 hr after HPC of ibuprofen (10% aqueous) on shaved back
Excerpt: as §1

in vivo = experiment: in vivo
Protocol: The plasma or brain tissue (the whole brain was washed with pH 7.4 buffer for 3 times) was homogenized immediately in 3-5 ml of methanol, using a tissue tearor at 30,000 rpm (about 2 min.).

[4] = test system: rats given sterilized E. coli suspension as a pyrogen; experiment: Antipyretic activity of ibuprofen and its HPC (Study A); assay type: in vivo
[5] = Fluorescence microscopy of HPC crossing rat skin, brain and other organs; assay type: in vivo; conditions: 15 minutes after 30 mg in 0.5 ml ethanol on back of rats
Protocol: For fluorescence microscopy studies, 30 mg of 5-(dimethylamino)naphthalene-1-sulfonic acid or its HPC, N-2-diethylaminoethyl 5-dimethylamino-1-naphthalenesulfonamide.HCl salt was dissolved in 0.5 ml of 75% ethanol and applied to the shaved back of rats (3×3 cm). 15 minutes or 3 hours later, the rat was killed and organs were taken out and frozen. The frozen tissues (brain, liver, and muscle) were sliced and stained with Haematoxylin and eosin (H&E) staining. Results were shown picture 1-9 in FIG. 9.

Solubility in water = assay type: physicochemical
Protocol: 30 g (0.1 mol) of sodium 9-cis-retinoate was dissolved in 100 ml of acetonitrile. 26.1 g (0.1 mol) of 2-Bromo-N,N-diethylethylamine.HBr was added into the reaction mixture. The mixture was stirred for overnight at RT. The solvents were evaporated off. 200 ml of ethanol was added into the residue. The solid was removed by filtration. The solution was evaporated to dryness. 100 ml of ethyl acetate was added into the reaction mixture. Hexane (100 ml) was added. The solid product was collected by filtration. After drying, it yielded 36 g of the desired product (75%).

[6] = Amounts of ibuprofen in Beagle dogs cartilage tissue; assay type: in vivo; conditions: 18 hours after administration
[7] = Distribution in organs of rats after transdermal HPC of ibuprofen; conditions: 2 hr after 0.3 mmol/kg HPC of ibuprofen (10% aqueous) on shaved back
Excerpt: as §1

[8] = test system: Smyth chickens (animal models of vitiligo); experiment: Anti-vitiligo activity in Smyth chickens; assay type: in vivo; conditions: 50 mg/kg (5% in pure water) on discoloured lesions once per day for 10 weeks
Protocol: 20 Smyth chickens (animal models of vitiligo) were allocated to 2 groups. Group A (n=10) chickens received 1 ml of pure water on discoloured lesions once per day for 10 weeks. Group B (n=10) Smyth chicken received 50 mg/kg of diethylaminoethyl acetylsalicylate citric acid (5% in pure water) on discoloured lesions once per day for 10 weeks. In the untreated control group A, the lesions were worse and feather loss continued. In the diethylaminoethyl acetylsalicylate citric acid treated group B, the discoloured lesions disappeared and feathers regrew with 3-6 weeks.

[9] = test system: spontaneously hypertensive rats (SLAC/SHR); experiment: Anti-hypertensive activity in spontaneously hypertensive rats; assay type: in vivo; conditions: 50 mg/kg (10% in water) on back skin once per day
Protocol: 20 spontaneously hypertensive rats (SLAC/SHR, 19 weeks old, 300-350 g) were divided into 2 groups randomly. In group A, pure water (0.5 ml) was applied to the rats' back skin (˜5 cm^2, fur was cut off) once per day for 6 weeks. In groups B, 50 mg/kg of diethylaminoethyl acetylsalicylate citric acid salt (10% in water) was applied to the rats' back skin (˜5 cm^2, fur was cut off) once per day.

mice (aging) = experiment: Lifespan of mice; assay type: in vivo
Protocol: 60 mice (10 weeks old, 30.3±3.5 g) were divided into groups A and B. In group A (n=30), 0.05 ml of distilled water (˜2 cm^2) was applied to the back of mice once per day. In group B (n=30), […] of diethylaminoethyl acetylsalicylate citric acid (the HPC of aspirin) in 0.05 ml of water (10%) was applied to the back of mice (˜2 cm^2) once per day.

[10] = 20 mg/kg, transdermally, t = 0 min.
[11] = 20 mg/kg, transdermally, t = 90 min.
[12] = 20 mg/kg, transdermally, t = 180 min.
[13] = 20 mg/kg, transdermally, t = 270 min.
[14] = 50 mg/kg, transdermally, t = 0 min.
[15] = 50 mg/kg, transdermally, t = 90 min.
[16] = 50 mg/kg, transdermally, t = 180 min.
[17] = 50 mg/kg, transdermally, t = 270 min.
[18] = 100 mg/kg, orally, t = 270 min.
[19] = 100 mg/kg, transdermally, t = 0 min.
[20] = 100 mg/kg, transdermally, t = 90 min.
[21] = 100 mg/kg, transdermally, t = 180 min.
[22] = 100 mg/kg, transdermally, t = 270 min.

SMILES: CC(C)Cc1ccc(C(C)C(=O)O)cc1 (stereo not drawn) [ibuprofen, 2-(ρ-isobutylphenyl)propionic acid, reference compound]
- concentration at 2 h [1]: 30 ± 8 µM
- ibuprofen in synovial fluid ([2]; intramuscularly, 1 hour): 3.2 ± 0.3 nmol/g
- ibuprofen in synovial fluid ([2]; intramuscularly, 8 hours): 0.3 ± 0.1 nmol/g
- distribution in brain [3]: 5 ± 1 nmol/g
- distribution in cartilage pads [3]: 8 ± 2 nmol/g
- distribution in heart [3]: 10 ± 5 nmol/g
- distribution in prostate gland [3]: 18 ± 7 nmol/g
- distribution in testis [3]: 11 ± 4 nmol/g
- distribution in Myelin [3]: 25 ± 8 nmol/g
- concentration at 1 h (in vivo; male, rat, in vivo): 1430 ± 68 µM
- concentration at 8 h (in vivo; male, rat, in vivo): 313 ± 39 µM
- body temperature ([4]; 20 mg/kg, orally, t = 0 min.): 37.5 ± 0.2
- body temperature ([4]; 20 mg/kg, orally, t = 90 min.): 37.6 ± 0.3
- body temperature ([4]; 20 mg/kg, orally, t = 180 min.): 37.5 ± 0.3
- body temperature ([4]; 20 mg/kg, orally, t = 270 min.): 37.4 ± 0.3
- body temperature [4, 10]: 37.5 ± 0.3
- body temperature [4, 11]: 37.5 ± 0.5
- body temperature [4, 12]: 37.8 ± 0.4
- body temperature [4, 13]: 37.9 ± 0.3
- body temperature ([4]; 50 mg/kg, orally, t = 0 min.): 37.5 ± 0.3
- body temperature ([4]; 50 mg/kg, orally, t = 90 min.): 37.6 ± 0.3
- body temperature ([4]; 50 mg/kg, orally, t = 180 min.): 37.2 ± 0.3
- body temperature ([4]; 50 mg/kg, orally, t = 270 min.): 37.1 ± 0.3
- body temperature [4, 14]: 37.6 ± 0.3
- body temperature [4, 15]: 37.8 ± 0.3
- body temperature [4, 16]: 37.9 ± 0.3
- body temperature [4, 17]: 38.1 ± 0.3
- body temperature ([4]; 100 mg/kg, orally, t = 0 min.): 37.5 ± 0.3
- body temperature ([4]; 100 mg/kg, orally, t = 90 min.): 37.4 ± 0.4
- body temperature [4, 18]: 36.7 ± 0.3
- body temperature [4, 19]: 37.6 ± 0.4
- body temperature [4, 20]: 37.9 ± 0.4
- body temperature [4, 21]: 37.8 ± 0.3
- body temperature [4, 22]: 37.8 ± 0.2
- antipyretic activity ([4]; transdermal administration): did not show any antipyretic activity

SMILES: CCN(CC)CCNS(=O)(=O)c1cccc2c(N(C)C)cccc12.Cl [N-2-diethylaminoethyl 5-dimethylamino-1-naphthalenesulfonamide.HCl salt]
- fluorescence chemical entering brain, muscle, and liver [5]: large amount of the fluorescence chemical had entered the brain, muscle, and liver

SMILES: Br.CCN(CC)CCOC(=O)/C=C(C)/C=C/C=C(C)\C=C\C1=C(C)CCCC1(C)C [N,N-diethylaminoethyl 9-cis-retinoate.HBr]
- solubility in water (Solubility in water): 30 mg/mL

SMILES: CCN(CC)CCOC(=O)C(C)c1ccc(CC(C)C)cc1.Cl (stereo not drawn) [diethylaminoethyl 2-(ρ-isobutylphenyl)propionate.HCl]
- ibuprofen in synovial fluid ([2]; intramuscularly, 1 hour): 28.1 ± 8.1 nmol/g
- ibuprofen in synovial fluid ([2]; intramuscularly, 8 hours): 22.1 ± 4.2 nmol/g
- ibuprofen in synovial fluid ([2]; intramuscularly, 18 hours): 4.2 ± 1.1 nmol/g
- ibuprofen in synovial fluid ([2]; transdermally, 1 hour): 11.6 ± 4.2 nmol/g
- ibuprofen in synovial fluid ([2]; transdermally, 8 hours): 28.2 ± 4.7 nmol/g
- ibuprofen in synovial fluid ([2]; transdermally, 18 hours): 11.2 ± 3.2 nmol/g
- Amount of ibuprofen in cartilage tissue ([6]; intramuscularly): 17.2 ± 6.1 nmol/g
- Amount of ibuprofen in cartilage tissue ([6]; transdermally): 22.5 ± 4.5 nmol/g
- distribution in brain [3]: 0.4 ± 0.2 nmol/g
- distribution in cartilage pads [3]: 0.4 ± 0.2 nmol/g
- distribution in heart [3]: 0.3 ± 0.1 nmol/g
- distribution in prostate gland [3]: 0.5 ± 0.3 nmol/g
- distribution in testis [3]: 0.5 ± 0.3 nmol/g
- distribution in Myelin [3]: 0.60 ± 0.2 nmol/g
- ibuprofen in Plasma (18 hr) (in vivo; intramuscularly): 0.5 ± 0.2 nmol/mL
- ibuprofen in Plasma (18 hr) (in vivo; transdermally): 2.9 ± 2 nmol/mL
- distribution in brain [7]: 0.1 ± 0.05 nmol/g
- distribution in heart [7]: 0.5 ± 0.2 nmol/g
- distribution in kidney [7]: 0.4 ± 0.2 nmol/g
- distribution in liver [7]: 0.2 ± 0.2 nmol/g
- distribution in pancreas [7]: 0.5 ± 0.3 nmol/g
- distribution in stomach [7]: 0.3 ± 0.1 nmol/g
- body temperature ([4]; 20 mg/kg, orally, t = 0 min.): 37.6 ± 0.3
- body temperature ([4]; 20 mg/kg, orally, t = 90 min.): 37.1 ± 0.3
- body temperature ([4]; 20 mg/kg, orally, t = 180 min.): 36.9 ± 0.3
- body temperature ([4]; 20 mg/kg, orally, t = 270 min.): 36.8 ± 0.2
- body temperature [4, 10]: 37.6 ± 0.2
- body temperature [4, 11]: 36.7 ± 0.4
- body temperature [4, 12]: 36.6 ± 0.5
- body temperature [4, 13]: 36.5 ± 0.3
- body temperature ([4]; 50 mg/kg, orally, t = 0 min.): 37.6 ± 0.3
- body temperature ([4]; 50 mg/kg, orally, t = 90 min.): 36.6 ± 0.3
- body temperature ([4]; 50 mg/kg, orally, t = 180 min.): 36.5 ± 0.3
- body temperature ([4]; 50 mg/kg, orally, t = 270 min.): 36.4 ± 0.2
- body temperature [4, 14]: 37.5 ± 0.4
- body temperature [4, 15]: 36.5 ± 0.3
- body temperature [4, 16]: 36.4 ± 0.3
- body temperature [4, 17]: 36.5 ± 0.2
- body temperature ([4]; 100 mg/kg, orally, t = 0 min.): 37.5 ± 0.4
- body temperature ([4]; 100 mg/kg, orally, t = 90 min.): 36.5 ± 0.3
- body temperature ([4]; 100 mg/kg, orally, t = 180 min.): 36.4 ± 0.3
- body temperature [4, 18]: 36.4 ± 0.2
- body temperature [4, 19]: 37.5 ± 0.3
- body temperature [4, 20]: 36.5 ± 0.2
- body temperature [4, 21]: 36.4 ± 0.3
- body temperature [4, 22]: 36.5 ± 0.2

SMILES: CCN(CC)CCOC(=O)c1ccccc1OC(C)=O.O=C(O)CC(O)(CC(=O)O)C(=O)O [diethylaminoethyl acetylsalicylate citric acid salt]
- time until discoloured lesions disappeared and feathers regrew [8]: 3-6 weeks
- Blood pressure (week 0), Systolic [9]: 184.6 ± 15.1 mmHg
- Blood pressure (week 0), diastolic [9]: 118.2 ± 13.1 mmHg
- Blood pressure (week 2 to week 6), Systolic [9]: 115.4 ± 14.6 mmHg
- Blood pressure (week 2 to week 6), diastolic [9]: 83.5 ± 12.1 mmHg
- Lifespan (mice (aging); 0.5 mg in 0.05 ml of water on back once per day, n=30): 38.2 ± 4.6 month
- increase of the lifespan of mice (mice (aging); mouse, in vivo): 27%
